Tested on: primary osteoblasts
Assay: Alkaline phosphatase (ALP) activity of osteoblasts
Format: cell-based, Wistar rats
Conditions: day 15 of treatment; 10^-9 M 1,25(OH)2D3, 1 μM OLP, 1 μM HTy; vs negative control (C-); FIGS. 3 to 6
Procedure: Primary osteoblasts were isolated from the calvaria of newborn Wistar rats by enzymatic digestion as described by Declercq et al. in 2004. During all experiments, cells were maintained in α-minimal essential medium with 10% heat-inactivated fetal bovine serum and 1% penicillin/streptomycin under conditions of 5% CO2 and 37° C. Cells were seeded on Coll-1-coated 96-well plates at a density of 3500 cells/well or in 24-well plates at a density of 3×10^4 cells/well and cultured for 2 days in o-MEM to reach confluence. Cells were then exposed to different conditions: minimal medium (C−), minimal medium containing 50 μg/ml ascorbic acid, 5 mM ß-glycerophosphate (C+; optimized medium), and minimal medium supplemented with 1 μM Oleuropein ([…]) or/and 10^−9 M 1,25 dihydroxyvitamin D3 (1,25(OH)2D3). OLP and HTy were dissolved in dimethylsulfoxide (DMSO) and 1,25(OH)2D3 was dissolved in ethanol. The final concentrations of DMSO and ethanol in the medium were 0.1% each. The medium was changed every 2 days.
Enzymatic activity of Alkaline Phosphatase (ALP) was measured kinetically on Treatment Days 0, 5, 9, 12 and 15. Osteoblasts were rinsed twice with PBS before being frozen on dry ice. […] Absorbance was measured at 405 nm and 30° C., and every 2 min 30 s for 30 min using a VarioSklan Flash microplate reader. ALP activity was expressed as micromoles of p-NPP per hour per milligram of protein. […]

C=C1/C(=C\C=C2/CCC[C@]3(C)[C@@H]([C@H](C)CCCC(C)(C)O)CC[C@@H]23)C[C@@H](O)C[C@@H]1O [Vitamin D3, 1,25 dihydroxyvitamin D3]
AP (ALP) activity / osteoblast activity: small but statistically significant increase
